According to patent publication US9072741B2, “Methods of treating liver fibrosis and pre-cirrhosis with epidermal growth factor receptor inhibitors” (The General Hospital Corporation, priority 2009, dated 2015):
“And” between values parts separate entries of the source, which are not always exact repeats. Equal entries are not always repeated. Marks after values point to notes of the source that are not given here.

Experiments:
[1] = test system: DEN-induced cirrhosis and HCC; assay: DEN-induced rat model of cirrhosis and HCC: tumor formation (tumor nodules) and gross liver appearance; format: in vivo, male Wistar rats; settings: for decrease of tumor formation: vs vehicle
Procedure: FIG. 1A is a bar graph depicting the number of tumor nodules in male Wistar rats receiving weekly intraperitoneal injections of 50 mg/kg diethylnitrosamine (DEN) for 18 weeks and vehicle only (n=16), 0.5 mg/kg erlotinib (Erl 0.5; n=8), or 2 mg/kg erlotinib (Erl 2; n=8) during weeks 12-18.
FIG. 5A is a bar graph depicting the number of tumor nodules in male Wistar rats receiving weekly intraperitoneal injections of 50 mg/kg DEN for 18 weeks and vehicle only (n=8) or 18 mg/kg lapatinib (n=8) during weeks 12-18. *, significant.
Given the lack of successful treatment options for HCC, chemoprevention in high-risk patients has been proposed as an alternative strategy (Llovet et al., Lancet 362:1907-17, 2003). Even though EGFR inhibition is not effective for chemotherapy, the data presented herein indicate that it is likely to be a good chemoprevention strategy. The diethylnitrosamine (DEN)-induced rat model of sequential cirrhosis and HCC has emerged as a promising tool for not only studying the course of chronic liver disease but also for testing putative chemopreventive agents as it better resembles disease progression in humans (Lee et al., Korean J Hepatol 13:70-80, 2007; Schiffer et al., Hepatology 41:307-14, 2005). In this model, DEN induces liver cirrhosis after 12 weeks and HCC at approximately 18 weeks allowing ample opportunity for preventative intervention.
Erlotinib is a drug used to treat non-small cell lung cancer and pancreatic cancer. Erlotinib specifically targets the EGFR, which is highly expressed and occasionally mutated in various forms of cancer, by binding to the adenosine triphosphate (ATP) binding site of the receptor (Raymond et al., Drugs 60 Suppl 1:15-23, 2000). To investigate erlotinib as a chemoprevention strategy for liver fibrogenesis, male Wistar rats were given a weekly intraperitoneal injection of 50 mg/kg DEN to induce cirrhosis and HCC (Lee et al., Korean J Hepatol 13:70-80, 2007). Erlotinib was administered by intraperitoneal injection daily (5× a week) during weeks 12-18 at a dose of 2 mg/kg, which is equivalent to chemotherapeutic dosing regimens in humans. […] In a separate study, the dose of erlotinib was lowered to 0.5 mg/kg.
(§1) Repeated injury to the liver causes damage to hepatocytes and activates resident macrophages called Kupffer cells. Damaged hepatocytes and activated Kupffer cells secrete cytokines and growth factors into the liver milieu, which activate hepatic stellate cells (Friedman, Gastroenterology 134:1655-69, 2008). Normally, hepatic stellate cells are quiescent and store vitamin A and fat. Upon activation, they differentiate into a myofibroblast-phenotype and express α-smooth muscle actin (α-SMA) (Friedman, Gastroenterology 134:1655-69, 2008). Activated hepatic stellate cells deposit fibrous collagen into the space of Disse acutely causing fibrosis and chronically causing cirrhosis. The degree of liver disease (fibrosis versus cirrhosis) is pathologically assessed through trichrome staining of collagen by the method of Ishak (Mod Pathol 7:690-713, 1994).
To investigate lapatinib as a chemoprevention strategy for liver fibrogenesis, male Wistar rats were given a weekly intraperitoneal injection of 50 mg/kg DEN to induce cirrhosis and HCC (Lee et al., Korean J Hepatol 13:70-80, 2007). Lapatinib was administered by intraperitoneal injection daily (5× a week) during weeks 12-18 at a dose of 18 mg/kg.

[2] = test system: activated hepatic stellate cells; assay: α-SMA staining of liver sections for activated hepatic stellate cells in DEN-treated rats; format: in vivo, male Wistar rats
Procedure: FIGS. 2B-2G are a series of six panels showing representative pictures of Masson's trichome (B-D) and α-SMA stains (E-G) of liver sections from rats receiving weekly intraperitoneal injections of DEN (50 mg/kg) for 18 weeks and (B and E) vehicle only, (C and F) 0.5 mg/kg erlotinib (Erl 0.5), or (D and G) 2 mg/kg erlotinib (Erl 2) during weeks 12-18.
FIGS. 6B-6E are a series of four panels showing representative pictures of Masson's trichrome (B-C) and α-SMA stains (D-E) of liver sections from rats receiving weekly intraperitoneal injections of DEN (50 mg/kg) for 18 weeks and (B and D) vehicle only or (C and E) 18 mg/kg lapatinib during weeks 12-18.
as §1, with “Activated hepatic stellate cells deposit fibrous collagen into the space of Disse acutely causing fibrosis and chronically causing cirrhosis.” left out, “1994). […]” for “1994).”

[3] = test system: DEN-induced fibrosis and cirrhosis; assay: DEN-treated rats with liver biopsy before and after treatment (disease progression within the same animal); format: in vivo, male Wistar rats
Procedure: FIG. 3A is a scheme of the experiment. Male Wistar rats received weekly intraperitoneal injections of DEN (50 mg/kg) for 18 weeks. After 12 weeks, the rats underwent a survival hepatectomy and a liver biopsy was removed for histology. Rats then received vehicle or erlotinib (2 mg/kg) daily (5 days/week) during weeks 13-18. Rats were sacrificed at 19 weeks after a one-week washout of DEN. FIG. 3B is a bar graph showing Ishak scores from Masson's trichrome stains of liver sections from each animal. **p<0.01 compared to vehicle. FIG. 3C is a bar graph depicting the number of tumor nodules that were greater than 5 mm in diameter in rats that received vehicle or erlotinib. **p<0.01 compared to vehicle. FIG. 3D is a bar graph showing the weights of livers at the time of sacrifice expressed as percent body weight.
To further examine the ability of erlotinib to reverse fibrosis and cirrhosis, liver biopsies were performed on DEN-treated rats before and after they received erlotinib (FIG. 3A) to determine disease progression within the same animal.

advanced HCC = settings: recent clinical trials (Philip et al.; Thomas et al.); cited from earlier work

SMILES | inhibition of tumor formation ([1]; 0.5 mg/kg i.p. daily weeks 12-18, DEN 50 mg/kg weekly for 18 weeks, separate study) [%] | decrease of tumor formation ([1]; 2 mg/kg i.p. daily (5x a week) weeks 12-18, DEN 50 mg/kg weekly for 18 weeks) [%] | gross appearance of livers ([1]; 0.5 and 2 mg/kg weeks 12-18 (FIGS. 1C, 1D) vs vehicle) | activation of hepatic stellate cells (α-SMA staining) ([2]; 0.5 and 2 mg/kg weeks 12-18 vs vehicle) | animals with reversed disease progression ([3]; 2 mg/kg weeks 13-18, eight animals) | fibrosis and cirrhosis (Ishak, FIG. 3B) ([3]; 2 mg/kg weeks 13-18 vs vehicle) | tumorigenesis (tumor nodules greater than 5 mm, FIG. 3C) ([3]; 2 mg/kg weeks 13-18 vs vehicle) | liver weight (percent body weight, FIG. 3D) ([3]; 2 mg/kg weeks 13-18 vs vehicle, at sacrifice) | Ishak 19 weeks, AVERAGE ([3]; average of 8 rats after 2 mg/kg weeks 13-18, vehicle 5.8) | Change of Ishak score, AVERAGE ([3]; average of 8 rats, 2 mg/kg weeks 13-18, vehicle +2.2) | Ishak 13 weeks, AVERAGE ([3]; average of 8 rats, biopsy before treatment, vehicle 3.6) | Change of Ishak score ([3]; individual rats, 19 weeks vs 13 weeks, 2 mg/kg weeks 13-18, 2 mg/kg) | Ishak 19 weeks ([3]; individual rats, after 2 mg/kg daily (5 days/week) weeks 13-18) | Ishak 13 weeks ([3]; individual rats, biopsy before treatment (baseline)) | disease control in advanced HCC patients (advanced HCC) | decrease of tumor formation ([1]; 18 mg/kg i.p. daily (5x a week) weeks 12-18, DEN 50 mg/kg weekly for 18 weeks) | gross appearance of livers ([1]; 18 mg/kg weeks 12-18 (FIG. 5C) vs vehicle) | activation of hepatic stellate cells (α-SMA staining) ([2]; 18 mg/kg weeks 12-18 vs vehicle)
C#Cc1cccc(Nc2ncnc3cc(OCCOC)c(OCCOC)cc23)c1 [erlotinib, 4-Quinazolinamine, N-(3-ethynylphenyl)-6,7-bis(2-methoxyethoxy)] | 49 | 75 | not only exhibited less tumors, but also appeared less cirrhotic | dramatically decreased the activation of hepatic stellate cells in a dose-dependent fashion | two out of eight | significantly less fibrosis and cirrhosis | significant decrease in tumorigenesis | decrease in liver weight | 4.3* | +1 | 3.3 | +3 and +2 (3×) and −2 and −1 and +1 (2×) | 6 and 5 (2×) and 4 (3×) and 3 (2×) | 3 (4×) and 2 (2×) and 5 (2×) | improved disease control in only a minority |  |  | 
CS(=O)(=O)CCNCc1ccc(-c2ccc3ncnc(Nc4ccc(OCc5cccc(F)c5)c(Cl)c4)c3c2)o1 [lapatinib, 4-Quinazolinamine, N-(3-chloro-4-((3-fluorophenyl)methoxy)phenyl)-6-(5-(((2-(methylsulfonyl)ethyl)amino)methyl)-2-furanyl)] |  |  |  |  |  |  |  |  |  |  |  |  |  |  |  | greater than 50% | not only exhibited less tumors, but also appeared less cirrhotic | dramatically decreased the activation of hepatic stellate cells in a dose-dependent fashion
